Test results reported in US7662831B2, “Tetracyclic indoles as potassium channel modulators” (Wyeth LLC, priority 2006, dated 2010).

Tested on: isolated rat bladder strips
Test: Inhibition of contractions of isolated rat bladder strips (KCl-enhanced contractile activity)
Settings: 15 mM KCl added; for IC50: 0.5 h, isolated Sprague-Dawley rat bladder strips, 30 min challenge per concentration, read-out: IC50 (concentration required to elicit 50% inhibition of pre-drug contractile activity); for % Enhancement of Contractility @ 3 μM / inhibition at 3 µM: isolated rat bladder strips; for inhibition at 3 µM: read-out: % Inhibition of Contractility @ 3 μM
Protocol: The compounds of the examples were tested to determine their ability to inhibit contractions of isolated rat bladder strips. See Foster, C. D. et al. Br. J. Pharmacol. 97:281-291, 1989; and Fujii, K. et al. Br. J. Pharmacol. 99:779-785, 1990. Malmgren, A. et al. J. Urol. 143:828-834, 1990, each of which are incorporated herein by reference in its entirety.
Male Sprague-Dawley rats (150-200 g) were obtained from ACE animal suppliers. Animals were allowed free access to food and water.
Animals were euthanized by CO2 asphyxiation followed by a bilateral thoracotomy. The bladder was removed into warm (37 deg. C.) physiological salt solution (PSS) of the following composition (mM): NaCl, 118.4; KCl, 4.7; CaCl2, 2.5; MgSO4.7H2O, 1.2; NaHCO3, 24.9; KH2PO4, 1.2; glucose, 11.1; EDTA, 0.023; gassed with 95% O2/5% CO2; pH 7.4. The bladder was opened and then cut into strips 1-2 mm in width and 7-10 mm in length. The strips were subsequently suspended in a 10 ml tissue bath under an initial resting tension of 1.5 g. The strips were held in place by two surgical clips one of which was attached to a fixed hook while the other was attached to an isometric force transducer. […] The carbachol was then washed out and the tissue allowed to relax to its resting level of activity. Following a further thirty minute period of recovery an additional 15 mM KCl was introduced into the tissue bath. This increase in KCl concentration results in a large increase in the amplitude of spontaneous contractions (and initiation of contractions in previously quiescent strips) superimposed upon a small increase in basal tone. Following stabilization of this enhanced level of contractile activity, incremental increases in the concentration of test compound or vehicle were introduced into the tissue bath. Contractile activity was measured for each compound or vehicle concentration during the last minute of a thirty minute challenge.
Isometric force developed by the bladder strips was measured using a force transducer and recorded on a polygraph. Contractile activity was assessed by measuring either the average amplitude of the contractions (baseline to peak force) occurring during a one min period or, preferably, by integrating the contractile activity with respect to time (one minute measuring period).
The percentage inhibition of contractile activity evoked by each concentration of a given test compounds was used to generate a concentration-response curve. The concentration of test compound required to elicit 50% inhibition of pre-drug contractile activity (IC50 concentration) was calculated from this concentration-response curve. The maximum percentage inhibition of contractile activity evoked by a test compound was also recorded for concentrations of test compound <- or 30 uM.

## CC(C)(C)CC(=O)Nc1cc2c3c(c1)c1c(n3CCC2)CCCCC1 [Example 1, N-5,6,9,10,11,12-hexahydro-4H,8H-cyclohepta[4,5]pyrrolo[3,2,1-ij]quinolin-2-yl-3,3-dimethylbutanamide]
  IC50: 30 to 70 nM

## CC(C)(C)C(=O)Nc1cc2c3c(c1)c1c(n3CCC2)CCCCC1 [Example 2, N-5,6,9,10,11,12-hexahydro-4H,8H-cyclohepta[4,5]pyrrolo[3,2,1-ij]quinolin-2-yl-2,2-dimethylpropanamide]
  % Enhancement of Contractility @ 3 μM: 20-100%

## CCCCCC(=O)Nc1cc2c3c(c1)c1c(n3CCC2)CCCCC1 [Example 3, N-5,6,9,10,11,12-hexahydro-4H,8H-cyclohepta[4,5]pyrrolo[3,2,1-ij]quinolin-2-ylhexanamide]
  IC50: 400 to 2600 nM

## O=C(CCc1ccccc1)Nc1cc2c3c(c1)c1c(n3CCC2)CCCCC1 [Example 4, N-5,6,9,10,11,12-hexahydro-4H,8H-cyclohepta[4,5]pyrrolo[3,2,1-ij]quinolin-2-yl-3-phenylpropanamide]
  inhibition at 3 µM: 5 to 20%

## O=C(Nc1cc2c3c(c1)c1c(n3CCC2)CCCCC1)c1cccs1 [Example 5, N-5,6,9,10,11,12-hexahydro-4H,8H-cyclohepta[4,5]pyrrolo[3,2,1-ij]quinolin-2-ylthiophene-2-carboxamide]
  % Enhancement of Contractility @ 3 μM: 60-90%

## CC(C)CC(=O)Nc1cc2c3c(c1)c1c(n3CCC2)CCCCC1 [Example 6, N-5,6,9,10,11,12-hexahydro-4H,8H-cyclohepta[4,5]pyrrolo[3,2,1-ij]quinolin-2-yl-3-methylbutanamide]
  IC50: 80 to 350 nM

## CCC(=O)Nc1cc2c3c(c1)c1c(n3CCC2)CCCCC1 [Example 7, N-5,6,9,10,11,12-hexahydro-4H,8H-cyclohepta[4,5]pyrrolo[3,2,1-ij]quinolin-2-ylpropanamide]
  IC50: 400 to 550 nM

## O=C(Nc1cc2c3c(c1)c1c(n3CCC2)CCCCC1)C1CCCCC1 [Example 8, N-5,6,9,10,11,12-hexahydro-4H,8H-cyclohepta[4,5]pyrrolo[3,2,1-ij]quinolin-2-ylcyclohexanecarboxamide]
  % Enhancement of Contractility @ 3 μM: 150-200%

## CCCCC(=O)Nc1cc2c3c(c1)c1c(n3CCC2)CCCCC1 [Example 9, N-5,6,9,10,11,12-hexahydro-4H,8H-cyclohepta[4,5]pyrrolo[3,2,1-ij]quinolin-2-ylpentanamide]
  IC50: 50 to 1000 nM

## CC(C)(C)CC(=O)Nc1cc2c3c(c1)c1c(n3CC2)CCCCC1 [Example 10, N-4,5,8,9,10,11-hexahydro-7H-cyclohepta[b]pyrrolo[3,2,1-hi]indol-2-yl-3,3-dimethylbutanamide]
  IC50: 150 to 350 nM

## CC(=O)Nc1cc2c3c(c1)c1c(n3CC2)CCCCC1 [Example 11, N-4,5,8,9,10,11-hexahydro-7H-cyclohepta[b]pyrrolo[3,2,1-hi]indol-2-ylacetamide]
  IC50: 650 to 700 nM

## CCCCC(=O)Nc1cc2c3c(c1)c1c(n3CC2)CCCCC1 [Example 12, N-4,5,8,9,10,11-hexahydro-7H-cyclohepta[b]pyrrolo[3,2,1-hi]indol-2-ylpentanamide]
  IC50: 700 to 1000 nM

## O=C(Cc1ccccc1)Nc1cc2c3c(c1)c1c(n3CC2)CCCCC1 [Example 13, N-4,5,8,9,10,11-hexahydro-7H-cyclohepta[b]pyrrolo[3,2,1-hi]indol-2-yl-2-phenylacetamide]
  IC50: 500 to 600 nM

## CC(C)CC(=O)Nc1cc2c3c(c1)c1c(n3CC2)CCCCC1 [Example 14, N-4,5,8,9,10,11-hexahydro-7H-cyclohepta[b]pyrrolo[3,2,1-hi]indol-2-yl-3-methylbutanamide]
  IC50: 800 to 1000 nM

## O=C(CCC1CCCC1)Nc1cc2c3c(c1)c1c(n3CC2)CCCCC1 [Example 15, 3-cyclopentyl-N-4,5,8,9,10,11-hexahydro-7H-cyclohepta[b]pyrrolo[3,2,1-hi]indol-2-ylpropanamide]
  IC50: 300 to 1200 nM

## CC(C)(C)CC(=O)Nc1cc2c3c(c1)c1c(n3CCC2)CCCC1 [Example 16, N-5,6,8,9,10,11-hexahydro-4H-pyrido[3,2,1-jk]carbazol-2-yl-3,3-dimethylbutanamide]
  % Enhancement of Contractility @ 3 μM: 80-100%

## CCCCCC(=O)Nc1cc2c3c(c1)c1c(n3CCC2)CCCC1 [Example 17, N-5,6,8,9,10,11-hexahydro-4H-pyrido[3,2,1-jk]carbazol-2-ylhexanamide]
  IC50: 400 to 800 nM

## CC(C)CC(=O)Nc1cc2c3c(c1)c1c(n3CCC2)CCCC1 [Example 18, N-5,6,8,9,10,11-hexahydro-4H-pyrido[3,2,1-jk]carbazol-2-yl-3-methylbutanamide]
  IC50: 500 to 550 nM

## CC(=O)Nc1cc2c3c(c1)c1c(n3CCC2)CCCC1 [Example 19, N-5,6,8,9,10,11-hexahydro-4H-pyrido[3,2,1-jk]carbazol-2-ylacetamide]
  IC50: 2000 to 3000 nM

## CCCCCC(=O)Nc1cc2c3c(c1)c1c(n3CC2)CCCCCC1 [Example 20, N-4,5,7,8,9,10,11,12-octahydrocycloocta[b]pyrrolo[3,2,1-hi]indol-2-ylhexanamide]
  IC50: 80 to 550 nM

## CC(C)(C)CC(=O)Nc1cc2c3c(c1)c1c(n3CC2)CCCCCC1 [Example 21, 3,3-dimethyl-N-4,5,7,8,9,10,11,12-octahydrocycloocta[b]pyrrolo[3,2,1-hi]indol-2-ylbutanamide]
  IC50: 160 to 700 nM

## CCCCCCC(=O)Nc1cc2c3c(c1)c1c(n3CC2)CCCCCC1 [Example 22, N-4,5,7,8,9,10,11,12-octahydrocycloocta[b]pyrrolo[3,2,1-hi]indol-2-ylheptanamide]
  IC50: 800 to 1000 nM

## CC(C)(C)CC(=O)Nc1cc2c3c(c1)c1c(n3CCC2)C(=O)CCCC1 [Example 23, 3,3-dimethyl-N-(8-oxo-5,6,9,10,11,12-hexahydro-4H,8H-cyclohepta[4,5]pyrrolo[3,2,1-ij]quinolin-2-yl)butanamide]
  inhibition at 3 µM: 25 to 50%
